The source of these data is ChEMBL document CHEMBL1773045, “Conjugate (MTC-220) of muramyl dipeptide analogue and paclitaxel prevents both tumor growth and metastasis in mice” (J Med Chem, 2011).

One data set has as its system T47D. Briefly: Growth inhibition of human T47D cells after 48 hrs by sulforhodamine B assay. In kind it is functional.
Another data set concerns SF-295. Nature of the data set: Growth inhibition of human SF295 cells after 48 hrs by sulforhodamine B assay. In kind it is functional. The following applies: SF-295, 48 h. Background: In SRB staining, fixed cells bind dye roughly in proportion to their protein.
In a further data set the test system is SW-620. Nature of the data set: Growth inhibition of human SW620 cells after 48 hrs by sulforhodamine B assay. In kind it is functional. The following applies: SW-620, 48 h.
The subject of a further data set is OVCAR-8. Nature of the data set: Growth inhibition of human OVCAR8 cells after 48 hrs by sulforhodamine B assay. In kind it is functional. The following applies: OVCAR-8, 48 h.
In the next data set the test system is A498. Briefly: Growth inhibition of human A498 cells after 48 hrs by sulforhodamine B assay. In kind it is functional. The following applies: A498, 48 h.
The test system of data set [1] is Mus musculus. Briefly: Antimetastatic activity against mouse 4T1 cells xenografted in BALB/c mouse assessed as reduction of TNFalpha mRNA expression in tumor at 5 mg/kg, ip qd for 23 days by RT-PCR analysis. The class given is functional, organism-based. On the set-up: dose 5 mg/kg.
Another data set has as its system SNB-75. Briefly: Growth inhibition of human SNB75 cells after 48 hrs by sulforhodamine B assay. The class given is functional. The following applies: SNB-75, 48 h.
In another data set the test system is 786-0. Nature of the data set: Growth inhibition of human 786-0 cells after 48 hrs by sulforhodamine B assay. In kind it is functional. As to conditions: 786-0, 48 h.
In another data set the test system is BGC-823. Nature of the data set: Cytotoxicity against human BGC823 cells after 72 hrs by MTT assay. In kind it is functional, cell-based. For orientation: Formazan colour is commonly taken as a measure of viable cells.
Data set [2] has as its system Mus musculus. Briefly: Toxicity in human cancer cells xenografted in nu/nu BALB/c mouse assessed as side effects at 5 to 30 mg/kg, ip qd for 24 days. The class given is organism-based, Cancer cell lines. On the set-up: dose 5-30 mg/kg, route intraperitoneal. The following applies: in vivo, 576 h. Background: Xenograft models place foreign cells or tissue in a host animal.

Data set [3] has as its system Mus musculus. Nature of the data set: Toxicity in mouse LLC cells xenografted C57BL/6 mouse assessed as decrease in body weight at 10 mg/kg, ip qd for 15 days. In kind it is organism-based. The arrangement: dose 10 mg/kg, route intraperitoneal. The following applies: in vivo, 360 h.
In the next data set the test system is MDA-MB-435. Nature of the data set: Growth inhibition of human MDA-MB-435 cells after 48 hrs by sulforhodamine B assay. In kind it is functional. As to conditions: MDA-MB-435, 48 h.

Calls of active or inactive are those of the source. No cut-off for these calls is given here.

In general, GI50 refers to the concentration that inhibits growth by half. Read a high GI50 as less potent growth inhibition. Take `CC(=O)O[C@H]1C(=O)[C@@]2(C)[C@H]([C@H](OC(=O)c3ccccc3)[C@]3(O)C[C@H](OC(=O)[C@H](OC(=O)CCC(=O)NCCCC[C@H](NC(=O)CC[C@H](NC(=O)[C@H](C)NC(=O)/C=C/c4ccc(Cl)cc4)C(N)=O)C(N)=O)[C@H](NC(=O)c4ccccc4)c4ccccc4)C(C)=C1C3(C)C)[C@]1(OC(C)=O)CO[C@@H]1C[C@@H]2O`: the GI50 in the data set on T47D, with SF-295, with SW-620, with OVCAR-8, in the data set with A498 and in the data set on SNB-75 was less than 10 nM each time. Besides, the 50% growth inhibitory concentration (GI50) in the data set on 786-0 and in the data set with MDA-MB-435 was less than 10 nM each time. Also, the result with Mus musculus [1] and with BGC-823 was Active. For the same compound, the Activity result in the data set on Mus musculus [2] and in the data set with Mus musculus [3] was “Non-toxic” each time.
